According to PubChem BioAssay AID1963979 (Molecular Pharmacology Branch, DTP, NCI, 2024):

System: 361931-004-R-J1-PDC multicell spheroid viability
Experiment: Anticancer human tumor 361931-004-R-J1-PDC patient-derived colon adenocarcinoma cell line growth inhibition [PI3K]
Conditions: for IC50: curve of first compound; for viability, T/C: stronger effect = lower value; active = viability on the fitted dose curve at most 10% of control; inactive = the rest
Text: Combinatorial screen of targeted agents with the PI3K inhibitors inavolisib, alpelisib, duvelisib, and copanlisib in multi-cell type tumor spheroids
A high-throughput screen of multi-cell type tumor spheroids was designed to identify active combinations of targeted small molecules and PI3K pathway inhibitors. Complex spheroids include a stromal component modeled by human endothelial cells (HUVEC) and fibroblasts modeled by human mesenchymal stem cells (MSCs). The concentration ranges selected for each drug and investigational agent were based upon clinically achievable concentrations if the clinical Cmax of the agent was known.
Compounds. The drugs and investigational agents: inavolisib (NSC800729), alpelisib (NSC765974), duvelisib (NSC772469), copanlisib (NSC816437), ipatasertib (NSC767898), afuresertib (NSC778305), talazoparib (NSC767125), sapanisertib (NSC764658), selumetinib (NSC741078), tovorafenib (DAY101, NSC766906), vemurafenib (NSC761431), ravoxertinib (NSC781343), sotorasib (NSC818433), MRTX1133 (NSC 836407), abemaciclib (NSC 768073), palbociclib (NSC758247), venetoclax (NSC 766270), SY5609 (NSC837396), enzalutamide (NSC755605), and darolutamide (NSC825331), were obtained from the National Cancer Institute (NCI) Developmental Therapeutics Program Chemical Repository. The FDA-approved anticancer drug set is available from the NCI Developmental Therapeutics Program. […] The stock solutions were prepared in dimethyl sulfoxide (DMSO, Sigma-Aldrich, St. Louis, MO, cat. D2650) at 800-fold the tested concentration and stored at -70 degrees C prior to their use. All drugs and investigational agents were tested over a range starting from a high concentration at or near the clinical Cmax and decreasing in half-log increments. If the clinical Cmax for an agent had not been determined, the highest concentration tested was 10 microM.
Cell Culture. All cells were maintained in an incubator at 37 degrees C and 5% CO2 with 95% humidity. The PDC lines were cultured according to standard operating procedures established by the NCI PDMR (https://pdmr.cancer.gov/sops/default.htm). All PDCs were thawed and cultured in Matrigel-coated flasks prepared with a working solution of 1X Ham's F-12 nutrient mix, without supplementation (Invitrogen, Waltham, MA, cat. 11765054), 100 U/mL penicillin-streptomycin (Invitrogen, cat. 15140122), and 2.5% Matrigel (Corning Inc., Corning, NY, cat. 354248) for the first three passages. The 354836-022-R-J1-PDC, 475296-252-R-J1-PDC, and 997726-040-R-J2-PDC lines were cultured in 6A media, which includes advanced DMEM/F-12 (Thermo Fisher Scientific, cat. 12634028), 10 mM HEPES (Thermo Fisher Scientific, cat. 15630080), 1X GlutaMAX supplement (Thermo Fisher Scientific, cat. 35050061), 0.1 mg/mL primocin (InvivoGen, San Diego, CA, cat. ant-pm-2), 10% defined fetal bovine serum, heat inactivated (HyClone Laboratories Inc., Logan, UT, cat. SH30070.03HI), 50% L-WRN conditioned media (ATCC, cat. CRL-3276), 1.25 mM N-Acetyl-L-cysteine (Sigma-Aldrich, cat. A9165), 10 mM nicotinamide (Sigma-Aldrich, cat. N0636), 1X B-27 supplement (Thermo Fisher Scientific, cat. 17504044), 1X N-2 supplement (Thermo Fisher Scientific, cat. 17502048), and 10 microM Y-27632 dihydrochloride (Tocris Bioscience, Bristol, United Kingdom, cat. 1254). The 624824-186-R-J2-PDC line was cultured in 6C/Colon 1B media, which includes all 6A media components plus 50 ng/mL human EGF recombinant protein (Thermo Fisher Scientific, cat. PHG0311). […]

[1] = second compound 0.00316 µM, first compound 0.0316 µM
[2] = second compound 0.00316 µM, first compound 0.1 µM
[3] = second compound 0.00316 µM, first compound 0.316 µM
[4] = second compound 0.00316 µM, first compound 1 µM
[5] = second compound 0.01 µM, first compound 0.0316 µM
[6] = second compound 0.01 µM, first compound 0.1 µM
[7] = second compound 0.01 µM, first compound 0.316 µM
[8] = second compound 0.01 µM, first compound 1 µM
[9] = second compound 0.0316 µM, first compound 0.0316 µM
[10] = second compound 0.0316 µM, first compound 0.1 µM
[11] = second compound 0.0316 µM, first compound 0.316 µM
[12] = second compound 0.0316 µM, first compound 1 µM
[13] = second compound 0.1 µM, first compound 0.0316 µM
[14] = second compound 0.1 µM, first compound 0.1 µM
[15] = second compound 0.1 µM, first compound 0.316 µM
[16] = second compound 0.1 µM, first compound 1 µM
[17] = second compound 0.316 µM, first compound 0.0316 µM
[18] = second compound 0.316 µM, first compound 0.1 µM
[19] = second compound 0.316 µM, first compound 0.316 µM
[20] = second compound 0.316 µM, first compound 1 µM
[21] = second compound 1 µM, first compound 0.0316 µM
[22] = second compound 1 µM, first compound 0.1 µM
[23] = second compound 1 µM, first compound 0.316 µM
[24] = second compound 1 µM, first compound 1 µM
[25] = second compound 0.00316 µM, first compound 0.00316 µM
[26] = second compound 0.00316 µM, first compound 0.01 µM
[27] = second compound 0.01 µM, first compound 0.00316 µM
[28] = second compound 0.01 µM, first compound 0.01 µM
[29] = second compound 0.0316 µM, first compound 0.00316 µM
[30] = second compound 0.0316 µM, first compound 0.01 µM
[31] = second compound 0.1 µM, first compound 0.00316 µM
[32] = second compound 0.1 µM, first compound 0.01 µM
[33] = second compound 0.316 µM, first compound 0.00316 µM
[34] = second compound 0.316 µM, first compound 0.01 µM
[35] = second compound 1 µM, first compound 0.00316 µM
[36] = second compound 1 µM, first compound 0.01 µM
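Note: spheroids exposed to agents for seven days before readout.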

CC(C)NCC(C(=O)N1CCN(c2ncnc3c2C(C)CC3O)CC1)c1ccc(Cl)cc1 (stereo unspecified) + CC(Nc1ccc2c(c1)OCCn1cc(N3C(=O)OCC3C(F)F)nc1-2)C(N)=O
1.27 µM: IC50 (second compound 0.00316 µM)
1.04 µM: IC50 (second compound 0.316 µM)
1.09 µM: IC50 (second compound 1 µM)
1.36 µM: IC50 (second compound 0.1 µM)
1.24 µM: IC50 (second compound 0.01 µM)
0.906 µM: IC50 (second compound 0.0316 µM)
inactive: viability, T/C [1] 93.3% | viability, T/C [2] 99% | viability, T/C [3] 78.1% | viability, T/C [4] 55.2% | viability, T/C (second compound 0.00316 µM, first compound 3.16 µM) 31.6% | viability, T/C (second compound 0.00316 µM, first compound 10 µM) 18.9% | viability, T/C [5] 105% | viability, T/C [6] 92.9% | viability, T/C [7] 75.9% | viability, T/C [8] 55.3% | viability, T/C (second compound 0.01 µM, first compound 3.16 µM) 31.8% | viability, T/C (second compound 0.01 µM, first compound 10 µM) 19.9% | viability, T/C [9] 97.9% | viability, T/C [10] 96.6% | viability, T/C [11] 76% | viability, T/C [12] 46.4% | viability, T/C (second compound 0.0316 µM, first compound 3.16 µM) 30.2% | viability, T/C (second compound 0.0316 µM, first compound 10 µM) 18.8% | viability, T/C [13] 101% | viability, T/C [14] 95% | viability, T/C [15] 71.2% | viability, T/C [16] 50.9% | viability, T/C (second compound 0.1 µM, first compound 3.16 µM) 41.8% | viability, T/C (second compound 0.1 µM, first compound 10 µM) 18.3% | viability, T/C [17] 90.5% | viability, T/C [18] 77.4% | viability, T/C [19] 74% | viability, T/C [20] 51.2% | viability, T/C (second compound 0.316 µM, first compound 3.16 µM) 28.6% | viability, T/C (second compound 0.316 µM, first compound 10 µM) 20.7% | viability, T/C [21] 72.3% | viability, T/C [22] 71.1% | viability, T/C [23] 68.9% | viability, T/C [24] 51.7% | viability, T/C (second compound 1 µM, first compound 3.16 µM) 25.3% | viability, T/C (second compound 1 µM, first compound 10 µM) 15.3%

CCN1CCN(Cc2ccc(Nc3ncc(F)c(-c4cc(F)c5nc(C)n(C(C)C)c5c4)n3)nc2)CC1 + CC(Nc1ccc2c(c1)OCCn1cc(N3C(=O)OCC3C(F)F)nc1-2)C(N)=O
inactive: viability, T/C [25] 96.2% | viability, T/C [26] 100% | viability, T/C [1] 91.2% | viability, T/C [2] 86.9% | viability, T/C [3] 86.2% | viability, T/C [4] 64.3% | viability, T/C [27] 104% | viability, T/C [28] 99.1% | viability, T/C [5] 77.5% | viability, T/C [6] 81.4% | viability, T/C [7] 86.1% | viability, T/C [8] 56.7% | viability, T/C [29] 91.4% | viability, T/C [30] 98.2% | viability, T/C [9] 76.2% | viability, T/C [10] 80% | viability, T/C [11] 68% | viability, T/C [12] 55.4% | viability, T/C [31] 90% | viability, T/C [32] 87.6% | viability, T/C [13] 71.7% | viability, T/C [14] 63.4% | viability, T/C [15] 67.2% | viability, T/C [16] 36.4% | viability, T/C [33] 75.7% | viability, T/C [34] 86.4% | viability, T/C [17] 62.8% | viability, T/C [18] 55% | viability, T/C [19] 42.5% | viability, T/C [20] 33.1% | viability, T/C [35] 75.4% | viability, T/C [36] 75.1% | viability, T/C [21] 54.4% | viability, T/C [22] 56.1% | viability, T/C [23] 45% | viability, T/C [24] 32.2%
> 1 µM: IC50 (second compound 0.00316 µM) | IC50 (second compound 0.01 µM) | IC50 (second compound 0.0316 µM)
0.146 µM: IC50 (second compound 1 µM)
0.142 µM: IC50 (second compound 0.316 µM)
0.504 µM: IC50 (second compound 0.1 µM)

Cn1ncnc1[C@H]1c2n[nH]c(=O)c3cc(F)cc(c23)N[C@@H]1c1ccc(F)cc1 + CC(Nc1ccc2c(c1)OCCn1cc(N3C(=O)OCC3C(F)F)nc1-2)C(N)=O
inactive: viability, T/C (second compound 0.00316 µM, first compound 0.000316 µM) 95.9% | viability, T/C (second compound 0.00316 µM, first compound 0.001 µM) 96.1% | viability, T/C [25] 89.4% | viability, T/C [26] 88.8% | viability, T/C [1] 95.6% | viability, T/C [2] 81.9% | viability, T/C (second compound 0.01 µM, first compound 0.000316 µM) 99.7% | viability, T/C (second compound 0.01 µM, first compound 0.001 µM) 98.7% | viability, T/C [27] 94.6% | viability, T/C [28] 94.2% | viability, T/C [5] 89.8% | viability, T/C [6] 91.1% | viability, T/C (second compound 0.0316 µM, first compound 0.000316 µM) 97.8% | viability, T/C (second compound 0.0316 µM, first compound 0.001 µM) 100% | viability, T/C [29] 95.4% | viability, T/C [30] 94.3% | viability, T/C [9] 98% | viability, T/C [10] 93.6% | viability, T/C (second compound 0.1 µM, first compound 0.000316 µM) 101% | viability, T/C (second compound 0.1 µM, first compound 0.001 µM) 77.5% | viability, T/C [31] 93.7% | viability, T/C [32] 86.2% | viability, T/C [13] 82% | viability, T/C [14] 67.1% | viability, T/C (second compound 0.316 µM, first compound 0.000316 µM) 89.3% | viability, T/C (second compound 0.316 µM, first compound 0.001 µM) 94.8% | viability, T/C [33] 86.2% | viability, T/C [34] 85.4% | viability, T/C [17] 77.5% | viability, T/C [18] 76.2% | viability, T/C (second compound 1 µM, first compound 0.000316 µM) 85.9% | viability, T/C (second compound 1 µM, first compound 0.001 µM) 77.4% | viability, T/C [35] 88.2% | viability, T/C [36] 69.7% | viability, T/C [21] 70.6% | viability, T/C [22] 64.4%
> 0.1 µM: IC50 (second compound 0.00316 µM) | IC50 (second compound 0.01 µM) | IC50 (second compound 0.0316 µM) | IC50 (second compound 0.1 µM) | IC50 (second compound 0.316 µM) | IC50 (second compound 1 µM)
